In patent US6656952B2, “Cis-substituted fluoromethylpyrrolidine derivative” (Daiichi Pharmaceutical Co., Ltd., priority 1997, dated 2003):
≈ marks a conversion by molar mass, not a printed value.

What was measured:
[1] = system: S. epidermidis, 56500; experiment: Antibacterial activity (MIC), standard method of the Japan Society of Chemotherapy; assay type: cell-based; details: Staphylococcus epidermidis, read-out: Antibacterial activity (minimum inhibitory concentration)
Method: (§1) Examples of the present invention are given below by way of illustration and not by way of limitation. The antibacterial activity of each compound of interest was measured in accordance with the standard method specified by the Japan Society of Chemotherapy, with the results shown in Table 1 as MIC values (μg/ml).

[2] = system: Ser. marcescens, 10100; experiment: as above; assay type: cell-based; details: Serratia marcescens, read-out: Antibacterial activity (minimum inhibitory concentration)
Method: as §1

[3] = system: X. maltophilia, IID 1275; experiment: as above; assay type: cell-based; details: Stenotrophomonas maltophilia, IID1275, read-out: Antibacterial activity (minimum inhibitory concentration)
Method: as §1

[4] = system: Ps. aeruginosa, 32121; experiment: as above; assay type: cell-based; details: Pseudomonas aeruginosa, read-out: Antibacterial activity (minimum inhibitory concentration)
Method: as §1

[5] = system: Str. faecalis, ATCC-19433; experiment: as above; assay type: cell-based; details: Enterococcus faecalis, ATCC19433, read-out: Antibacterial activity (minimum inhibitory concentration)
Method: as §1

[6] = system: Pr. mirabilis, IFO- 3849; experiment: as above; assay type: cell-based; details: Proteus mirabilis, IFO3849, read-out: Antibacterial activity (minimum inhibitory concentration)
Method: as §1

[7] = system: S. aureus, 870307; experiment: as above; assay type: cell-based; details: Staphylococcus aureus, read-out: Antibacterial activity (minimum inhibitory concentration)
Method: as §1

[8] = system: S. flexneli, 2A 5503; experiment: as above; assay type: cell-based; details: read-out: Antibacterial activity (minimum inhibitory concentration)
Method: as §1

[9] = system: E. coli, NIHJ; experiment: as above; assay type: cell-based; details: Escherichia coli, read-out: Antibacterial activity (minimum inhibitory concentration)
Method: as §1

[10] = system: Pr. vulgaris, 08601; experiment: as above; assay type: cell-based; details: Proteus vulgaris, read-out: Antibacterial activity (minimum inhibitory concentration)
Method: as §1

[11] = system: Ps. aeruginosa, 32104; experiment: as above; assay type: cell-based; details: Pseudomonas aeruginosa, read-out: Antibacterial activity (minimum inhibitory concentration)
Method: as §1

[12] = system: S. aureus, 209P; experiment: as above; assay type: cell-based; details: Staphylococcus aureus, read-out: Antibacterial activity (minimum inhibitory concentration)
Method: as §1

[13] = system: Str. pyogenes, G-36; experiment: as above; assay type: cell-based; details: Streptococcus pyogenes, G36, read-out: Antibacterial activity (minimum inhibitory concentration)
Method: as §1

[14] = system: mouse peripheral blood; experiment: Mouse peripheral blood micronucleus test; assay type: in vivo

For `COc1c(N2C[C@@H](CF)[C@@H](N)C2)c(F)cc2c(=O)c(C(=O)O)cn(C3CC3)c12` [Comp. Ex. 1, 7-[3-(R)-Amino-4-(R)-fluoromethyl-1-pyrrolidinyl]-1-cyclopropyl-6-fluoro-1,4-dihydro-8-methoxy-4-oxoquinoline-3-carboxylic acid, reference compound], the MIC [1] was 0.1 µg/mL (≈ 0.254 µM), the MIC [2] was 0.1 µg/mL (≈ 0.254 µM) and the MIC [3] was 0.2 µg/mL (≈ 0.508 µM). The MIC [4] was 0.1 µg/mL (≈ 0.254 µM), the MIC [5] was 0.2 µg/mL (≈ 0.508 µM) and the MIC [6] was 0.1 µg/mL (≈ 0.254 µM). For the same molecule, the MIC [7] was 0.78 µg/mL (≈ 1.98 µM), the MIC [8] was 13 ng/mL (≈ 0.033 µM) and the MIC [9] was no more than 3 ng/mL. It also gave an MIC [10] of 0.013 µg/mL (≈ 0.033 µM), an MIC [11] of 0.2 µg/mL (≈ 0.508 µM) and an MIC [12] of 0.025 µg/mL (≈ 0.0636 µM). It also gave an MIC [13] of 0.2 µg/mL (≈ 0.508 µM).
In the case of `COc1c(N2C[C@H](CF)[C@H](N)C2)c(F)cc2c(=O)c(C(=O)O)cn([C@@H]3C[C@@H]3F)c12` [Ex. 1, 7-[3-(S)-Amino-4-(S)-fluoromethyl-1-pyrrolidinyl]-6-fluoro-1-[2-(S)-fluoro-1-(R)-cyclopropyl]-1,4-dihydro-8-methoxy-4-oxoquinoline-3-carboxylic acid], the MIC [1] is reported as 0.05 µg/mL (≈ 0.122 µM), the MIC [2] is reported as 0.05 µg/mL (≈ 0.122 µM) and the MIC [3] is reported as 0.2 µg/mL (≈ 0.486 µM). It also gave an MIC [4] of 0.05 µg/mL (≈ 0.122 µM), an MIC [5] of 0.1 µg/mL (≈ 0.243 µM) and an MIC [6] of 0.025 µg/mL (≈ 0.0608 µM). The MIC [7] was 0.2 µg/mL (≈ 0.486 µM), the MIC [8] was 6 ng/mL (≈ 0.0146 µM) and the MIC [9] was no more than 3 ng/mL. It also gave an MIC [10] of 0.013 µg/mL (≈ 0.0316 µM), an MIC [11] of 0.2 µg/mL (≈ 0.486 µM) and an MIC [12] of 0.013 µg/mL (≈ 0.0316 µM). It also gave an MIC [13] of 0.1 µg/mL (≈ 0.243 µM).
Molecule `COc1c(N2C[C@H](CF)[C@H](N)C2)c(F)cc2c(=O)c(C(=O)O)cn(C3CC3)c12` [Ex. 2, 7-[3-(S)-Amino-4-(S)-fluoromethyl-1-pyrrolidinyl]-1-cyclopropyl-6-fluoro-1,4-dihydro-8-methoxy-4-oxoquinoline-3-carboxylic acid] has an MIC [1] of 0.05 µg/mL (≈ 0.127 µM), an MIC [2] of 0.05 µg/mL (≈ 0.127 µM) and an MIC [3] of 0.1 µg/mL (≈ 0.254 µM). It also gave an MIC [4] of 0.1 µg/mL (≈ 0.254 µM), an MIC [5] of 0.1 µg/mL (≈ 0.254 µM) and an MIC [6] of 0.05 µg/mL (≈ 0.127 µM). It also gave an MIC [7] of 0.39 µg/mL (≈ 0.991 µM), an MIC [8] of 6 ng/mL (≈ 0.0153 µM) and an MIC [9] of no more than 3 ng/mL. The MIC [10] was 0.013 µg/mL (≈ 0.033 µM), the MIC [11] was 0.2 µg/mL (≈ 0.508 µM) and the MIC [12] was 0.013 µg/mL (≈ 0.033 µM). It also gave an MIC [13] of 0.1 µg/mL (≈ 0.254 µM).
With `COc1c(N2C[C@@H](N)[C@@H](C)C2)c(F)cc2c(=O)c(C(=O)O)cn(C3CC3)c12` [formula (VI)] the “micronucleus test (micronucleus inducing action)” value [14] was “positive”.
